Source: patent publication US9511120B2, “Use of the angiotensin-(1-9) peptide or derivatives thereof, use of vectors overexpressing the ACE2 enzyme that produces angiotensin-(1-9) for preparing medicaments useful for preventing, reverting, inhibiting and/or reducing hypertension and/or inducing vasodilation” (PONTIFICA UNIVERSIDAD CATÓLICA DE CHILE, priority 2012, dated 2016)
Where no end group is shown, it is not given here.

Columns and labels:
Assay type in all cases: in vivo, rat
collagen I = test: Goldblatt model: collagen I protein levels in the aortic wall; details: GB rats
Text: (§1) Lewis normotensive rats (weight 150±10 g), which were separated randomly into the experimental hypertension model group or GB (Ocaranza et al. J. Hypertens. 20:413-20, 2002) or control group (S) were used. The latter corresponded to pseudo-operated animals. All animals were maintained under controlled conditions of light and darkness and had free access to food and water. Four weeks after surgery and at a blood pressure above 140 mmHg, GB rats were randomized for the chronic administration of angiotensin-(1-9) through an osmotic pump (602 ng kg^−1min^−1) via the jugular vein during two weeks. The animals were euthanized after 6 weeks post-surgery.
For the determination of collagen I and TGFβ-1, 30 μg and 50 μg of total proteins were used, respectively, diluted in SDS reducing buffer (50 mM tris-HCl, pH 7.4, NP-40 10%, NaCl 1M, Na deoxycholate 5%, EDTA 10 mg/mL, SDS 10%, aprotinin 1 mg/mL, leupeptin 0.1 mg/mL, PMSF 10 mM), they were then separated by SDS-PAGE gel electrophoresis 7%, and transferred to nitrocellulose membranes of […] to 300 mA for 1 h. The transfer of proteins was monitored by Ponceau red staining. […]

[1] = system: cardiomyocyte hypertrophy of hypertensive rats by pressure overload; test: Goldblatt model: cardiomyocyte area and perimeter; details: GB rats
Text: as §1
The middle portion of the left ventricle (LV) was dehydrated at room temperature for 24 h in Bouin and then embedded in paraffin. Sections of 10-15 μm thick were taken and stained with hematoxylin-eosin, to be examined later in a light microscope in order to observe their general morphological characteristics. Cardiomyocyte size was determined according to Nakamura et al. (Circulation, 98:794-9, 1998). […] The cardiomyocyte area and perimeter were measured and recorded, using the Nis-Element program (Ocaranza et al. J. Hypertens., 28:1054-64, 2010). All measurements were performed by a blinded observer, and at least 80 images of cells per animal, which were randomly selected, were analyzed.

[2] = system: hypertensive rats by clamping the renal artery (Goldblatt model); test: Goldblatt model (GB, 2 kidneys, 1 clip): body weight, cardiac mass, systolic blood pressure
Text: as §1
Systolic blood pressure (SBP) was measured by the tail plethysmographic method in the animals. To such end, rats were lightly anesthetized with ethyl ether. The measurement was performed once a week by researchers blind to the treatment (Ocaranza et al. J. Hypertens. 20:413-20, 2002).
The degree of cardiac hypertrophy (CH) was measured by the ratio of the cardiac mass (CM), the body mass (BM) and relative cardiac mass (RCM; [CM/BM]*100) (Ocaranza et al., J. Hypertens. 28:1054-1064, 2010).

Q: Which results are given for DRVYIHPFH?
A: reduction of the increase of collagen in the aorta wall (collagen I): 54%; decrease of cardiomyocyte area as compared to hypertensive rats [1]: 16%; decrease of cardiomyocyte perimeter as compared to hypertensive rats [1]: 22%; decrease of systolic blood pressure ([2]; GB rats, from week 1 after the administration, maintained 2 weeks): 15%; CM ([2]; GB rats, two weeks treatment): 0.37 ± 0.02 ^ g; RCM ([2]; GB rats, two weeks treatment): 0.84 ± 0.04 mg/g; RCM ([2]; hypertensive rats vs. 400±1 in GB, not statistically significant): 380±2; BW (as printed in text) ([2]; rats with HTN vs. untreated GB animals 0.93±0.04): 0.84 ± 0.03 g
